Results: patent US11865176B2, “Compositions and methods of modulating anti-tumor immunity” (Dana-Farber Cancer Institute, Inc., priority 2016, dated 2024)

Test system: PD-1-overexpressing Jurkat cells
Assay: Small molecule screen: IL2 secretion (AlphaLISA) from stimulated PD-1-overexpressing Jurkat cells
Format: cell-based, human
Settings: 3.3 μM compound; for Zscore_1 / Zscore_2: IL2 level, α-CD3/α-CD28/α-PD-1 beads; for Zscore_1: replicate 1; for Zscore_2: replicate 2; for Zscore_AVG: average of replicate Z scores
Method in brief: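 Cells (100,000/well) with compound at 3.3 μM final, stimulated by α-CD3/α-CD28/α-PD-1 Dynabeads at an 8:1 bead:cell ratio. IL2 in supernatants measured by AlphaLISA. Hits scored ≥3 SD from the mean of DMSO-treated, α-PD-1-bead-stimulated controls.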

| Compound | Zscore_1 | Zscore_2 | Zscore_AVG |
| --- | --- | --- | --- |
| CO[C@H]1[C@@H](OC)C[C@H](C)[C@@H](OC)C2=CC(=O)C=C(NC(=O)/C(C)=C/C=C\[C@H](OC)[C@@H](OC(N)=O)/C(C)=C/[C@@H]1C)C2=O [Herbimycin A, Streptomyces sp.] | 5.643 | 3.663 | 4.653 |
| O=C1Nc2ccccc2/C1=C1/Nc2ccccc2/C1=N\OCC(O)CO (centres unmarked) [Indirubin Derivative E804] | 20.78 | 24.43 | 22.6 |
| CNCCNS(=O)(=O)c1cccc2cnccc12.Cl.Cl [H-8, Dihydrochloride] | −1.014 | −2.509 | −1.761 |
| Cl.Cl.O=S(=O)(NCCNC/C=C/c1ccc(Br)cc1)c1cccc2cnccc12 [H-89, Dihydrochloride] | −3.268 | −0.4334 | −1.851 |
| O=c1[nH]c2ccccc2n1C1CCN(Cc2ccc(-c3nc4cc5nc[nH]c5cc4nc3-c3ccccc3)cc2)CC1 [Akt Inhibitor VIII, Isozyme- Selective, Akti-1/2] | 1.673 | 1.052 | 1.362 |
| COc1cccc(-c2cc(=O)c3ccccc3o2)c1N [PD98059] | −1.781 | −1.614 | −1.698 |
| O=C(Nc1ccc(-c2cn[nH]c2)cc1)C1COc2ccccc2O1 (centres unmarked) [Rho Kinase Inhibitor V] | −0.6152 | −2.172 | −1.394 |
| COc1cc2ncnc(Nc3ccc(Oc4ccccc4)cc3)c2cc1OC [Src Kinase Inhibitor I] | 4.691 | 1.808 | 3.249 |
| COc1ccc2c(c1)c(C1=C(c3c[nH]c4ccccc34)C(=O)NC1=O)cn2CCCN(C)C [G? 6983] | −9.778 | −9.075 | −9.426 |
| CCc1nc(-c2ccc(OC)cc2)[nH]c1-c1ccncc1 [SB 202474, Neg Con for p38 MAPK Inhibition Studies] | −2.475 | −0.6025 | −1.539 |
| PI 3-KbInhibitor II |  | 2.315 | 1.096 |
| Scytonemin, Lyngbya sp. | 0.1217 | −0.3399 | −0.1091 |
| O=C1NC(=O)C(c2c[nH]c3ccccc23)=C1c1c[nH]c2ccccc12 [Bisindolylmaleimide IV] | −2.073 | −2.336 | −2.205 |
| Oc1ccc2ccccc2c1SSc1c(O)ccc2ccccc12 [p21-Activated Kinase Inhibitor III, IPA-3] | −0.461 | 0.6426 | 0.09079 |
| O=[N+]([O-])/C=C/c1ccc2c(c1)OCO2 [Syk Inhibitor III] | −0.8894 | 0.1912 | −0.3491 |
| Oc1ccc(Nc2nc(-c3ccc(Cl)cc3)cs2)cc1 [Sphingosine Kinase Inhibitor] | −3.806 | −4.154 | −3.98 |
| Brc1c(Br)c(Br)c2n[nH]nc2c1Br [Casein Kinase II Inhibitor I] | 0.6337 | 0.5348 | 0.5842 |
| c1ccc2c(-c3ccncc3)c[nH]c2c1 [Rho Kinase Inhibitor III, Rockout] | −0.1806 | −2.59 | −1.385 |
| Cn1nc2c3c(cccc31)C(=O)c1ccccc1-2 [JNK Inhibitor, Negative Control] | 0.1027 | 1.046 | 0.5746 |

| Compound | Zscore_1 | Zscore_2 | Zscore_AVG |
| --- | --- | --- | --- |
| O=C1NCCc2[nH]c(-c3ccnc(-c4cnc5ccccc5c4)c3)cc21 [MK-2 Inhibitor III] | −4.419 | −7.061 | −5.74 |
| O=c1[nH][nH]c2nnc(-c3c(-c4ccccc4)nn4ccccc34)cc12 [ERK Inhibitor II, Negative Control] | −1.778 | 1.052 | −0.3634 |
| CC(C)c1nn(-c2c(Cl)cccc2Cl)c2nc(Cc3ccc(OCCO)cc3)[nH]c(=O)c12 [Cdk/Crk Inhibitor] | −10.43 | −11.89 | −11.16 |
| Nc1ncnc2c1cnn2-c1ccccc1 [PP3] | 0.2416 | 0.9081 | 0.5749 |
| Nc1ncnc2c1c(-c1ccc(Oc3ccccc3)cc1)cn2C1CCCC1 [Lck Inhibitor] | −8.467 | −8.924 | −8.695 |
| O=c1cc(N2CCOCC2)oc2c1ccc1ccccc12 [DNA-PK Inhibitor II] | 0.06496 | 0.1041 | 0.08452 |
| CN1C(=O)C(c2c[nH]c3ccccc23)=C(c2c[nH]c3ccccc23)C1=O [Bisindolylmaleimide V] | −0.6214 | 1.109 | 0.2438 |
| CC(C)(C)n1nc(Cc2cccc3ccccc23)c2c(N)ncnc21 [PP1 Analog II, 1NM-PP1] | −0.9751 | 0.08497 | −0.4451 |
| Isogranulatinude | 1.39 | 4.572 | 2.981 |
| CC(C)n1cnc2c(Nc3cccc(Cl)c3)nc(NCCO)nc21 [Compound 52] | −1.412 | −0.2643 | −0.8381 |
| Nc1ncnc2c1c(I)cn2[C@@H]1O[C@H](CO)[C@@H](O)[C@H]1O [5-Iodotubercidin] | −4.799 | −6.213 | −5.506 |
| COc1cc2ncnc(N3CCN(C(=O)Nc4ccc(Oc5ccccc5)cc4)CC3)c2cc1OC [PDGF Receptor Tyrosine Kinase Inhibitor III] | 1.681 | 3.032 | 2.357 |
| O=C(Nc1nc2ccccc2n1CCN1CCOCC1)c1cccc([N+](=O)[O-])c1 [IRAK-1/4 Inhibitor] | −0.5038 | −1.963 | −1.233 |
| Nc1cccc(-c2cc3c(Oc4cccc(O)c4)ncnc3[nH]2)c1 [GSK-3b Inhibitor XII, TWS119] | −1.059 | −1.321 | −1.19 |
| O=C(Nc1ccncc1)Nc1c(Cl)cc(Cl)cc1Cl [Rho Kinase Inhibitor II] | −1.746 | −1.88 | −1.813 |
| CCC(=O)Nc1ccc2ncnc(Nc3cccc(Br)c3)c2c1 [PD 174265] | −0.1183 | 0.5895 | 0.2356 |
| Fc1ccc(-c2nc3n(c2-c2ccncc2)CCS3)cc1 [SKF-86002] | −0.4953 | −2.331 | −1.413 |
| O=C1NC(=O)c2c1c1c3ccccc3[nH]c1c1[nH]c3cc(Br)ccc3c21 [Cdk4 Inhibitor] | 7.007 | 16.07 | 11.54 |
| COc1ccc(-c2cnc3c(-c4ccsc4)cnn3c2)cc1 [VEGF Receptor 2 Kinase Inhibitor IV] | −1.795 | 1.512 | −0.1417 |
